Measurements: ChEMBL document CHEMBL4732127, “The discovery of a potent and selective pyrazolo-[2,3-e]-[1,2,4]-triazine cannabinoid type 2 receptor agonist” (Eur J Med Chem, 2021)
Calls of active or inactive are those of the source. The calls are words filed in the database; no cut-off is given here.

Experiments:
Cannabinoid receptor 1 [1] = molecular target: T1, Cannabinoid receptor 1 (Homo sapiens, UniProt P21554); experiment: Agonist activity at human CB1 expressed in mouse AtT20 cells assessed as activation of G-protein gated inwardly rectifying K+ channels at 10 uM measured every 2 sec for 2 mins by FLIPR membrane potential assay; assay type: cell-based; settings: att20, 2 min
Cannabinoid receptor 2 [2] = molecular target: T2, Cannabinoid receptor 2 (Homo sapiens, UniProt P34972); experiment: Agonist activity at human CB2 expressed in mouse AtT20 cells assessed as activation of G-protein gated inwardly rectifying K+ channels at 10 uM measured every 2 sec for 2 mins by FLIPR membrane potential assay relative to control; assay type: cell-based; settings: filed as agonist
Cannabinoid receptor 2 [3] = molecular target: T2, Cannabinoid receptor 2; experiment: Agonist activity at human CB2 expressed in mouse AtT20 cells assessed as activation of G-protein gated inwardly rectifying K+ channels measured every 2 sec for 2 mins by FLIPR membrane potential assay; assay type: cell-based
Cannabinoid receptor 2 [4] = molecular target: T2, Cannabinoid receptor 2; experiment: Agonist activity at human CB2 expressed in mouse AtT20 cells assessed as activation of G-protein gated inwardly rectifying K+ channels at 10 uM measured every 2 sec for 2 mins by FLIPR membrane potential assay; assay type: cell-based
Cannabinoid receptor 2 [5] = molecular target: T2, Cannabinoid receptor 2; experiment: Agonist activity at human CB2 expressed in mouse AtT20 cells assessed as maximal activation of G-protein gated inwardly rectifying K+ channels measured every 2 sec for 2 mins by FLIPR membrane potential assay relative to control; assay type: cell-based; settings: filed as agonist
Cannabinoid receptor 2 [6] = molecular target: T2, Cannabinoid receptor 2; experiment: Displacement of [3H]-CP55940 from human CB2 expressed in CHO cell membrane incubated for 3 hrs by microbeta scintillation counting method; assay type: cell membranes
Cannabinoid receptor 1 [7] = molecular target: T1, Cannabinoid receptor 1; experiment: Displacement of [3H]-CP55940 from human CB1 expressed in CHO cell membrane incubated for 3 hrs by microbeta scintillation counting method; assay type: cell membranes
Cannabinoid receptor 1 [8] = molecular target: T1, Cannabinoid receptor 1; experiment: Agonist activity at CB1 (unknown origin)
Cannabinoid receptor 2 [9] = molecular target: T2, Cannabinoid receptor 2; experiment: Agonist activity at CB2 (unknown origin)

T2 sequence (P34972 whole entry): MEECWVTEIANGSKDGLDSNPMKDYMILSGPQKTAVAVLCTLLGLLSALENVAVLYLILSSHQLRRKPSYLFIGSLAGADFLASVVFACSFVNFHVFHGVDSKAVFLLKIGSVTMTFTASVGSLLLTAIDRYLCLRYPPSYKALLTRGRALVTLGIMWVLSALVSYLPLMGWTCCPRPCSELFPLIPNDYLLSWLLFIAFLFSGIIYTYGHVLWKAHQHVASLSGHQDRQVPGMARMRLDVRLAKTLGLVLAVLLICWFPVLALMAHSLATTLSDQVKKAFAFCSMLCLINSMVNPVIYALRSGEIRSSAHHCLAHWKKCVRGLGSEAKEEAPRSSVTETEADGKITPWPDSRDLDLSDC
T1 sequence (P21554 whole entry): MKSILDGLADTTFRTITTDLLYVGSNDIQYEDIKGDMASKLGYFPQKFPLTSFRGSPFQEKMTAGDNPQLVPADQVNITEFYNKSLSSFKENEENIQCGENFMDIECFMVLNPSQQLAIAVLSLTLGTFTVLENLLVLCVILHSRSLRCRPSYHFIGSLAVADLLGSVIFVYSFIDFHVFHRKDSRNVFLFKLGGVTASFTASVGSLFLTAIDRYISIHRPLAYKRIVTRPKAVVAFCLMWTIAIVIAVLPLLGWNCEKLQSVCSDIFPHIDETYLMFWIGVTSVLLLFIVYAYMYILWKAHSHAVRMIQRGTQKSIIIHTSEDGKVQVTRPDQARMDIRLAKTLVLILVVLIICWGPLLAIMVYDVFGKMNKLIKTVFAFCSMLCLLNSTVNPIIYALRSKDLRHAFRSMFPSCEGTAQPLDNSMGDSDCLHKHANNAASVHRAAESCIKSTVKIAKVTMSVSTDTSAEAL

Structure (SMILES) | Activity (Cannabinoid receptor 1 [1]) [%] | pEC50 (Cannabinoid receptor 2 [3]) | Activity (Cannabinoid receptor 2 [4]) [%] | other results
CC(C)(O)COc1ccc(C(F)(F)F)cc1/C=C/c1cc(C(C)(C)C)nn1C[C@H]1CCCO1 | < 50 | – | – | Activity (Cannabinoid receptor 2 [2]): 54%
CC(C)(O)COc1ccc(C(F)(F)F)cc1CNc1cc(C(C)(C)C)nn1C[C@H]1CCCO1 | < 50 | inactive | < 50 | –
CC(C)(O)COc1ccc(C(F)(F)F)cc1Nc1cc(C(C)(C)C)nn1C[C@H]1CCCO1 | < 50 | inactive | < 50 | –
CC(C)(O)COc1ccc(C(F)(F)F)cc1-c1nnc2c(C(C)(C)C)nn(C[C@H]3CCCO3)c2n1 | < 50 | – | – | EC50 (Cannabinoid receptor 2 [3]; read-out: EC50): 19 nM; Emax (Cannabinoid receptor 2 [5]): 115%; Ki (Cannabinoid receptor 2 [6]): 17 nM; Ki (Cannabinoid receptor 1 [7]): > 10000 nM
CC(C)(O)COc1ccc(C(F)(F)F)cc1C(=S)Nc1cc(C(C)(C)C)nn1C[C@H]1CCCO1 | < 50 | – | – | Activity (Cannabinoid receptor 2 [2]): 51%
CC(C)(O)COc1ccc(C(F)(F)F)cc1C(=O)Nc1cc(C(C)(C)C)nn1C[C@H]1CCCO1 | – | – | – | Ki (Cannabinoid receptor 2 [6]): > 10000 nM; Ki (Cannabinoid receptor 1 [7]): > 10000 nM
CC(C)(O)COc1ccc(C(F)(F)F)cc1-c1ccc(-c2cc(C(C)(C)C)nn2C[C@H]2CCCO2)o1 | < 50 | inactive | < 50 | –
CC(C)(O)COc1ccc(C(F)(F)F)cc1NC(=O)c1cc(C(C)(C)C)nn1C[C@H]1CCCO1 | < 50 | – | – | EC50 (Cannabinoid receptor 2 [3]; read-out: EC50): 6760 nM; EC50 (Cannabinoid receptor 2 [3]; read-out: pEC50 (converted)): 5250 nM; Emax (Cannabinoid receptor 2 [5]): 106%
CC(C)(O)COc1ccc(C(F)(F)F)cc1-c1ccc2c(C(C)(C)C)nn(C[C@H]3CCCO3)c2c1 | < 50 | – | – | EC50 (Cannabinoid receptor 2 [3]; read-out: EC50): 673 nM; Emax (Cannabinoid receptor 2 [5]): 104%
CC(C)(O)COc1ccc(C(F)(F)F)cc1S(=O)(=O)Nc1cc(C(C)(C)C)nn1C[C@H]1CCCO1 | < 50 | inactive | < 50 | –
CC(C)(O)COc1ccc(C(F)(F)F)cc1-c1cc(C(C)(C)C)nn1C[C@H]1CCCO1 | < 50 | inactive | < 50 | –
CC(C)(O)COc1ccc(C(F)(F)F)cc1C#Cc1cc(C(C)(C)C)nn1C[C@H]1CCCO1 | < 50 | – | – | Activity (Cannabinoid receptor 2 [2]): 62%
CC(C)(O)COc1ccc(C(F)(F)F)cc1CCc1cc(C(C)(C)C)nn1C[C@H]1CCCO1 | < 50 | inactive | < 50 | –
Cn1c(C(C)(C)C)c/c(=N\C(=O)c2cc(C(F)(F)F)ccc2OCC(C)(C)O)n1C[C@H]1CCCO1 | – | – | – | EC50 (Cannabinoid receptor 1 [8]): > 10000 nM; EC50 (Cannabinoid receptor 2 [9]): 19 nM; Ki (Cannabinoid receptor 2 [6]): 5.9 nM; Ki (Cannabinoid receptor 1 [7]): > 10000 nM
CC(C)(O)COc1ccc(C(F)(F)F)cc1-c1ncc2c(C(C)(C)C)nn(C[C@H]3CCCO3)c2n1 | < 50 | – | – | EC50 (Cannabinoid receptor 2 [3]; read-out: EC50): 41 nM; Emax (Cannabinoid receptor 2 [5]): 106%
CC(C)(O)COc1ccc(C(F)(F)F)cc1C(=O)Oc1cc(C(C)(C)C)nn1C[C@H]1CCCO1 | < 50 | – | – | EC50 (Cannabinoid receptor 2 [3]; read-out: EC50): 1280 nM; Emax (Cannabinoid receptor 2 [5]): 106%
CC(C)(O)COc1ccc(C(F)(F)F)cc1NC(=O)Nc1cc(C(C)(C)C)nn1C[C@H]1CCCO1 | < 50 | – | – | Activity (Cannabinoid receptor 2 [2]): 54%
CC(C)(O)COc1ccc(C(F)(F)F)cc1-c1cn(-c2cc(C(C)(C)C)nn2C[C@H]2CCCO2)nn1 | < 50 | inactive | < 50 | –
CN(C(=O)c1cc(C(F)(F)F)ccc1OCC(C)(C)O)c1cc(C(C)(C)C)nn1C[C@H]1CCCO1 | < 50 | inactive | < 50 | –
